This is an account of results in US20260191835A1, “COMBINATIONS COMPRISING A MENIN-MLL INHIBITOR AND AT LEAST ONE OTHER THERAPEUTIC AGENT” (JANSSEN PHARMACEUTICA NV, priority 2022, published 2026).

One may read the pIC50 as −log10 of the IC50, conventionally taken in molar units.

For one experiment, the system named is KO-52 cells. Nature of the experiment: Proliferation assay (spheroid assay), KO-52 control cell line. The experiment is classed as cell-based. Conditions: Homo sapiens, 192 h, 8 days; MLL wildtype control cell line; read-out: spheroid assay_KO-52 IC50. As to the method: (§1) The anti-proliferative effect of menin/MLL protein/protein interaction inhibitor test compounds was assessed in human leukemia cell lines. The cell line MOLM14 harbors a MLL translocation and expresses the MLL fusion protein MLL-AF9, respectively, as well as the wildtype protein from the second allele. OCI-AML3 cells that carry the NPM1c gene mutation were also tested. […] KO-52 was used as a control cell line containing two MLL (KMT2A) wildtype alleles in order to exclude compounds that display general cytotoxic effects.
(§2) MOLM14 cells were cultured in RPMI-1640 (Sigma Aldrich) supplemented with 10% heat-inactivated fetal bovine serum (HyClone), 2 mM L-glutamine (Sigma Aldrich) and 50 μg/ml gentamycin (Gibco). KO-52 and OCI-AML3 cell lines were propagated in alpha-MEM (Sigma Aldrich) supplemented with 20% heat-inactivated fetal bovine serum (HyClone), 2 mM L-glutamine (Sigma Aldrich) and 50 µg/ml gentamycin (Gibco).
In order to assess the anti-proliferative effects, 200 MOLM14 cells, 200° C. […] Spheroid like growth was measured in real-time by live-cell imaging (IncuCyteZOOM, Essenbio, 4× objective) acquiring images at day 8. Confluence (%) as a measure of spheroid size was determined using an integrated analysis tool.
In order to determine the effect of the test compounds over time, the confluence in each well as a measure of spheroid size, was calculated. […]

The subject of a further experiment is MOLM14 cells. The experiment in a line: Proliferation assay (spheroid assay), MOLM14. It counts as cell-based. The conditions noted are these: Homo sapiens, MOLM-14, 192 h, 8 days; read-out: spheroid assay_MOLM14 IC50. As to the method:
as §1, §2
In order to assess the anti-proliferative effects, 200 MOLM14 cells, […] or 300 KO-52 cells were seeded in 200 μl media per well in 96-well round bottom, ultra-low attachment plates (Costar, catalogue number 7007). Cell seeding numbers were chosen based on growth curves to ensure linear growth throughout the experiment. Test compounds were added at different concentrations and the DMSO content was normalized to 0.3%. Cells were incubated for 8 days at 37° C. and 5% CO2. Spheroid like growth was measured in real-time by live-cell imaging (IncuCyteZOOM, Essenbio, 4× objective) acquiring images at day 8. Confluence (%) as a measure of spheroid size was determined using an integrated analysis tool.
In order to determine the effect of the test compounds over time, the confluence in each well as a measure of spheroid size, was calculated. Confluence of the highest dose of a reference compound was used as baseline for the LC (Low control) and the confluence of DMSO treated cells was used as 0% cytotoxicity (High Control, HC).
Absolute IC50 values were calculated as percent change in confluence as follows: • LC=Low Control: cells treated with e.g. […] of the cytotoxic agent staurosporin, or e.g. cells treated with a high concentration of an alternative reference compound • HC=High Control: Mean confluence (%) (DMSO treated cells)
GraphPad Prism (version 7.00) was used to calculate the IC50. Dose-response equation was used for the plot of % Effect vs Log 10 compound concentration with a variable slope and fixing the maximum to 100% and the minimum to 0%.

In the next experiment the test system is MEIS1 mRNA expression. Nature of the experiment: MEIS1 mRNA expression assay (Quantigene Singleplex) in MOLM14. The experiment is classed as cell-based. The conditions noted are these: Homo sapiens, MOLM-14, 48 h, MOLM14 cells, 48 hours with compound. As to the method:
2b) MEIS1 mRNA Expression Assay
MEIS1 mRNA expression upon treatment of compound was examined by Quantigene Singleplex assay (Thermo Fisher Scientific). This technology allows for direct quantification of mRNA targets using probes hybridizing to defined target sequences of interest and the signal is detected using a Multimode plate reader Envision (PerkinElmer). The MOLM14 cell line was used for this experiment. Cells were plated in 96-well plates at 3,750 cells/well in the presence of increasing concentrations of compounds. After incubation of 48 hours with compounds, cells were lysed in lysis buffer and incubated for 45 minutes at 55° C. Cell lysates were mixed with human MEIS1 specific capture probe or human RPL28 (Ribosomal Protein L28) specific probe as a normalization control, as well as blocking probes. Cell lysates were then transferred to the custom assay hybridization plate (Thermo Fisher Scientific) and incubated for 18 to 22 hours at 55° C. Subsequently, plates were washed to remove unbound materials followed by sequential addition of preamplifiers, amplifiers, and label probe. Signals (=gene counts) were measured with a Multimode plate reader Envision. IC50s were calculated by dose-response modelling using appropriate software. For all non-housekeeper genes response equal counts corrected for background and relative expression. For each sample, each test gene signal (background subtracted) was divided by the normalization gene signal (RPL28: background subtracted). Fold changes were calculated by dividing the normalized values for the treated samples by the normalized values for the DMSO treated sample. Fold changes of each target gene were used for the calculation of IC50s.

In a further experiment the test system is MOLM-13 tumors. Nature of the experiment: Efficacy (survival) in disseminated MOLM-13 (KMT2A-rearranged) model in NSG mice. It counts as in vivo. The conditions noted are these: NSG mice bearing established MOLM-13 tumors, vs vehicle; Azacitidine 2 mg/kg ip QD × 7; Compound 51 2 mg/kg po QD × 28; n = 10. As to the method:
4) Efficacy of Menin-MLL Inhibitor in Combination with Azacitidine in MOLM-13 (KMT2A-Rearranged) Model in NSG Mice
Compound 51 was formulated in purified pyrogen-free deionized water, pH 4.0 and prepared to reach a total volume of 8 mL/kg. Doses were adjusted by individual body weight each day. Working stocks of Compound 51 were prepared once per week for each study and stored at 25° C.
Female NSG (NOD.Cg-Prkdc^scid Il2rg^tm1Wjl/SzJ) mice were used when they were approximately 6 to 8 weeks of age and weighed approximately 25 g. All animals could acclimate and recover from any shipping-related stress for a minimum of 7 days prior to experimental use. […]
Animals were monitored daily for clinical signs related to either compound toxicity or tumor burden (i.e., hind limb paralysis, lethargy, etc.).
For survival assessment, results were plotted as the percentage survival against days post tumor implant. […] Median survival was determined utilizing Kaplan-Meier survival analysis. The percent increased life span (ILS) was calculated as: ((median survival day of treated group−median survival day of control group)/median survival day of control group)×100. […]
Survival and body weight data were graphically represented utilizing Prism (Version 9). Statistical significance for body weights was evaluated as described above. […]

pIC50: −log10 of the molar value.

In the case of `CC(=O)N1CCC(CN2CCC(Cc3cn(-c4ccc(F)cc4C(=O)N(C)C(C)C)c4cncc(C)c34)C2)CC1` (single isomer, unassigned) [Compound 50], the pIC50 in the experiment on KO-52 cells is 5.64; with MOLM14 cells, 7.41; in the experiment on MEIS1 mRNA expression, 7.05.

Turning to `Nc1ncn([C@@H]2O[C@H](CO)[C@@H](O)[C@H]2O)c(=O)n1` [Azacitidine, azacitidine, reference compound], the “% ILS (increased life span)” value in the experiment on MOLM-13 tumors is on record as “*37%”.
